Laboratory results: patent EP1019392B1, “TRICYCLIC AMIDES USEFUL FOR INHIBITION OF G-PROTEIN FUNCTION AND FOR TREATMENT OF PROLIFERATIVE DISEASES” (SCHERING CORPORATION, priority 1995, dated 1997)
Like-named read-outs stand apart in the source and are kept apart here.

How the values were obtained:
[1] = tested on: DLD-1 (human colon carcinoma cells, ATCC # CCL 221); test: In Vivo Anti-Tumor Studies, subcutaneous DLD-1 tumors; set-up: species or system athymic nu/nu female mice; settings: Mus musculus, DLD-1, po, QID, 4 weeks, range over the listed compounds; for inhibition in vivo at 10 mg/kg: 10 mg/kg p.o.; for inhibition in vivo at 50 mg/kg: 50 mg/kg p.o.
Description: Tumor cells (5 X 10^5 to 8 X 10^6) of DLD-1 (human colon carcinoma cells, ATCC # CCL 221) are innolculated subcutaneously into the flank of 5-6 week o;d athymic nu/nu female mice.

[2] = tested on: T24-BAG4 human bladder carcinoma cells expressing an activated H-ras gene; test: Cell Mat Assay, T24 tumor cells; type: cell-based; settings: Homo sapiens, read-out: Tumor (T-24) IC50
[3] = tested on: DLD-1-BAG human colon carcinoma cells expressing as activated K-ras gene; test: Cell Mat Assay, DLD-1 tumor cells; type: cell-based
[4] = tested on: Ras-CVLS processing in COS monkey kidney cells; test: COS cell assay: inhibition of Ras-CVLS processing (Western blot); type: cell-based
[5] = tested on: Normal human HEPM fibroblasts; test: Cell Mat Assay, normal cell mat; type: cell-based; settings: Homo sapiens, Fibroblast, normal monolayer

Compound	inhibition in vivo at 10 mg/kg [1] [%]	inhibition in vivo at 50 mg/kg [1] [%]	IC50 [2] [nM]	IC50 ([3]; Mat assay) [nM]	IC50 ([4]; Primates, COS) [nM]	IC50 [5] [nM]	IC50 ([3]; Homo sapiens, DLD-1, Mat assay) [nM]	IC50 [4] [nM]
O=C(Cc1cc[n+]([O-])cc1)N1CCN([C@H]2c3ncc(Br)cc3CCc3cc(Cl)cc(Br)c32)CC1 [Example 11A]	7 to 50	35.4 to 83	< 1600	< 1600	< 25	> 25000	–	–
O=C(Cc1cc[n+]([O-])cc1)N1CCN([C@@H]2c3ccc(Cl)cc3CCc3cc(Br)cnc32)CC1 [Example 16A]	–	–	–	–	500	–	–	–
O=C(Cc1cc[n+]([O-])cc1)N1CCC(C2c3ccc(Cl)c(Br)c3CCc3cc(Br)cnc32)CC1 (single isomer, unassigned) [Example 14A]	7 to 50	35.4 to 83	< 1600	–	–	> 25000	6250	480
O=C(Cc1cc[n+]([O-])cc1)N1CCN([C@H]2c3ccc(Cl)c(Br)c3CCc3cc(Br)cnc32)CC1 [Example 5]	7 to 50	35.4 to 83	< 1600	–	–	> 25000	3100	–
O=C(Cc1cc[n+]([O-])cc1)N1CCC(=C2c3ccc(Cl)c(Br)c3CCc3cc(Br)cnc32)CC1 [Example 2]	7 to 50	35.4 to 83	< 1600	–	–	> 25000	6250	–
O=C(Cc1cc[n+]([O-])cc1)N1CCC(=C2c3ncc(Br)cc3CCc3cc(Cl)cc(Br)c32)CC1 (racemic) [Example 7]	7 to 50	35.4 to 83	< 1600	–	< 250	> 25000	–	–
NC(=O)N1CCC(CC(=O)N2CCC(C3c4ncc(Br)cc4CCc4cc(Cl)cc(Cl)c43)CC2)CC1 (single isomer, unassigned) [Example 18]	7 to 50	35.4 to 83	–	–	25	–	–	–
NC(=O)N1CCC(CC(=O)N2CCC(C3c4ccc(Cl)c(Br)c4CCc4cc(Br)cnc43)CC2)CC1 (single isomer, unassigned) [Example 13]	7 to 50	35.4 to 83	< 1600	–	–	–	–	420
O=C(Cc1cc[n+]([O-])cc1)N1CCN([C@H]2c3ccc(Cl)cc3CCc3cc(Br)cnc32)CC1 [Example 16B]	7 to 50	35.4 to 83	< 1600	–	125	> 25000	6250	–
O=C(Cc1cc[n+]([O-])cc1)N1CCC([C@H]2c3ncc(Br)cc3CCc3cc(Cl)cc(Br)c32)CC1 [Example 9]	7 to 50	35.4 to 83	< 1600	–	10	> 25000	< 1600	–
